From ChEMBL document CHEMBL5385848, “Discovery of novel hydroxyamidine based indoleamine 2,3-dioxygenase 1 (IDO1) and thioredoxin reductase 1 (TrxR1) dual inhibitors” (Eur J Med Chem, 2023)
Calls of active or inactive are those of the source. The calls are words filed in the database; no cut-off is given here.

Key:
HCT-116 [1] = test: Induction of apoptosis in human HCT-116 cells assessed as caspase-7 activation incubated for 24 hrs; assay type: functional, cell-based; conditions: dose 2.5-10 µM
[2] = target: Indoleamine 2,3-dioxygenase 1 (Mus musculus) (UniProt P28776); test: In vivo inhibition of IDO1 in BALB/c mouse implanted with mouse CT-26 cells assessed as reduction in plasma Kyn level at 60 mg/kg, po administered once daily by LC-MS/MS analysis; assay type: functional, organism-based
Chain of Indoleamine 2,3-dioxygenase 1 (Mus musculus) (P28776 whole entry, looked up): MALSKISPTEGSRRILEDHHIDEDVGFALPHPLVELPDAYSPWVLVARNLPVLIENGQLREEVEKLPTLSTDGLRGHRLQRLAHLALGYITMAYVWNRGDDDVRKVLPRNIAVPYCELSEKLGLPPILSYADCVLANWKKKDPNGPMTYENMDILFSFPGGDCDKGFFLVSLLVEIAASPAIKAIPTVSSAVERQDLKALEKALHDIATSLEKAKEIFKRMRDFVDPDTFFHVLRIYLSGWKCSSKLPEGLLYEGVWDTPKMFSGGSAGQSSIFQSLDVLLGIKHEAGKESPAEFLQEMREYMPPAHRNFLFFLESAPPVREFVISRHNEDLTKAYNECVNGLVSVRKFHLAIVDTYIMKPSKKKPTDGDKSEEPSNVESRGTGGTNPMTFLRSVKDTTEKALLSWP

HCT-116 [3] = test: Antitumor activity against human HCT-116 cells xenografted in ig dosed athymic nude BALB/c mouse assessed as tumor growth inhibition administered daily for 28 days and measured every 4 days; assay type: functional, organism-based; conditions: dose 15-60 mg/kg, time 28.0 day
[4] = target: Indoleamine 2,3-dioxygenase 1 (Mus musculus) (UniProt P28776); test: In vivo inhibition of IDO1 in C57BL/6 mouse assessed as reduction in plasma Kyn/Trp ratio at 60 mg/kg, po administered once daily by LC-MS/MS analysis; assay type: functional, organism-based
HeLa [5] = test: Cytotoxicity against human HeLa cells transfected with TrxR1 siRNA incubated for 24 hrs by CCK-8 assay (reference value: 9.74 +/- 1.64 uM); assay type: functional, cell-based
HeLa [6] = test: Cytotoxicity against TrxR1 knockdown human HeLa cells incubated for 24 hrs by CCK-8 assay (reference value: 13.79 +/- 2 uM); assay type: functional, cell-based
Mus musculus = test: In vivo inhibition of TrxR1 in human HCT-116 cells xenografted in athymic nude BALB/c mouse assessed as reduction in TrxR1 activity at 15 to 60 mg/kg, ig administered daily for 28 days and measured every 4 days; assay type: functional, organism-based; conditions: dose 15-60 mg/kg, time 28.0 day
HeLa [7] = test: Induction of cell cycle arrest in human HeLa cells assessed as G1/S phase arrest at 2.5 to 10 uM pretreated with NAC for 2 hrs followed by compound addition and measured after 12 hrs by PI staining based flow cytometry analysis; assay type: functional; conditions: dose 2.5-10 µM
[8] = target: T1, Indoleamine 2,3-dioxygenase 1 (Homo sapiens, UniProt P14902); test: Inhibition of IDO1 in human HeLa cells using L-Tryptophan as substrate incubated for 24 hrs by microplate reader analysis; assay type: cell-based
T1 sequence (P14902 whole entry): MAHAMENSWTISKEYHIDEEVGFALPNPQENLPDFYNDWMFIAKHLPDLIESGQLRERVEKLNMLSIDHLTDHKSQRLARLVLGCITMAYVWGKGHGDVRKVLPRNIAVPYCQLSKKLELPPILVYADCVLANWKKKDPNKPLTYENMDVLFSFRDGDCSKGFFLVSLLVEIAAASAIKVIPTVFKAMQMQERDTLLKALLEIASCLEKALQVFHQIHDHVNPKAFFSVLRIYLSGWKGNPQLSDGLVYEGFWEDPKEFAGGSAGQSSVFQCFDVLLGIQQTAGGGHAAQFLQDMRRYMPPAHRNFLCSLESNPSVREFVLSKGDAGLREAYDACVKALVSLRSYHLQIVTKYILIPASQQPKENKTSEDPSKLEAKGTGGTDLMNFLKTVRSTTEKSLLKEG

[9] = Toxicity in athymic BALB/c mouse xenografted with human HCT-116 cells assessed as change in liver morphology at 15 to 60 mg/kg, ig administered daily for 28 days and measured every 4 days; assay type: organism-based; conditions: in vivo, po, 672 h, dose 15-60 mg/kg, time 28 day
CT26 [10] = test: Antitumor activity against mouse CT26 cells implanted in athymic nude BALB/c mouse assessed as increase in CTL proliferation by measuring Ki67 expression at 15 to 60 mg/kg, ig administered daily for 28 days and measured every 4 days by flow cytometry analysis; assay type: functional, organism-based; conditions: dose 15-60 mg/kg, time 28.0 day
Thioredoxin reductase 3 = target: T2, Thioredoxin reductase 3 (Homo sapiens, UniProt Q86VQ6); test: Inhibition of TrxR3 (unknown origin) incubated for 1 hr in presence of NADPH by microplate reader analysis
T2 sequence (Q86VQ6 whole entry): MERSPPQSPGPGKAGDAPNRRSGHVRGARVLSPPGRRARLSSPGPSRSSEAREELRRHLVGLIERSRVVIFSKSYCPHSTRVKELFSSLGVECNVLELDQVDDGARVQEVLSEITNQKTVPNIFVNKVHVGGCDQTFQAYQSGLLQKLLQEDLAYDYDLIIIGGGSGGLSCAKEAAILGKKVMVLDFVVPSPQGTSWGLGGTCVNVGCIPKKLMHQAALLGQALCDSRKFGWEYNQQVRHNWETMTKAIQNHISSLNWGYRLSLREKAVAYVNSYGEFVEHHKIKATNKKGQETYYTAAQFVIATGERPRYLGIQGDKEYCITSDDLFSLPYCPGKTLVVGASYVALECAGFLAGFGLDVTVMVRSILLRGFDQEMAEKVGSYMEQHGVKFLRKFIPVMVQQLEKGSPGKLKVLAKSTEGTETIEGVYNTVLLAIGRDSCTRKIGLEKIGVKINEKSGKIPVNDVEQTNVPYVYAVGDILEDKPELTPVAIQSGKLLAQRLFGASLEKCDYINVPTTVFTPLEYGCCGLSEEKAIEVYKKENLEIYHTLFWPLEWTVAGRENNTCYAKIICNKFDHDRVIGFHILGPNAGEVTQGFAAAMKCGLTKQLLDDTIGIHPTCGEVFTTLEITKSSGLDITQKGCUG

[11] = target: T1, Indoleamine 2,3-dioxygenase 1; test: Inhibition of IDO1 in human HCT-116 cells using L-Tryptophan as substrate incubated for 24 hrs by microplate reader analysis; assay type: cell-based
CT26 [12] = test: Antitumor activity against mouse CT26 cells implanted in […] BALB/c mouse assessed as increase in CD4 Th lymphocytes at 15 to 60 mg/kg, ig administered daily for 28 days and measured every 4 days; assay type: functional, organism-based; conditions: dose 15-60 mg/kg, time 28.0 day
HCT-116 [13] = test: Antiproliferative activity against human HCT-116 cells assessed as cell growth inhibition incubated for 48 hrs by CCK-8 assay; assay type: functional, cell-based; conditions: HCT-116, 48 h
HCT-116 [14] = test: Induction of apoptosis in human HCT-116 cells assessed as apoptotic rate at 2.5 uM incubated for 24 hrs by Annexin-V/PI staining based flow cytometry analysis; assay type: functional
HeLa [15] = test: Induction of ROS generation in human HeLa cells at 10 uM incubated for 4 hrs by DCFH-DA staining based flow cytometry analysis; assay type: functional, cell-based
[16] = target: Thioredoxin reductase 2, mitochondrial (Homo sapiens, UniProt Q9NNW7); test: Inhibition of TrxR2 (unknown origin) incubated for 1 hr in presence of NADPH by microplate reader analysis
Chain of Thioredoxin reductase 2, mitochondrial (Q9NNW7 whole entry): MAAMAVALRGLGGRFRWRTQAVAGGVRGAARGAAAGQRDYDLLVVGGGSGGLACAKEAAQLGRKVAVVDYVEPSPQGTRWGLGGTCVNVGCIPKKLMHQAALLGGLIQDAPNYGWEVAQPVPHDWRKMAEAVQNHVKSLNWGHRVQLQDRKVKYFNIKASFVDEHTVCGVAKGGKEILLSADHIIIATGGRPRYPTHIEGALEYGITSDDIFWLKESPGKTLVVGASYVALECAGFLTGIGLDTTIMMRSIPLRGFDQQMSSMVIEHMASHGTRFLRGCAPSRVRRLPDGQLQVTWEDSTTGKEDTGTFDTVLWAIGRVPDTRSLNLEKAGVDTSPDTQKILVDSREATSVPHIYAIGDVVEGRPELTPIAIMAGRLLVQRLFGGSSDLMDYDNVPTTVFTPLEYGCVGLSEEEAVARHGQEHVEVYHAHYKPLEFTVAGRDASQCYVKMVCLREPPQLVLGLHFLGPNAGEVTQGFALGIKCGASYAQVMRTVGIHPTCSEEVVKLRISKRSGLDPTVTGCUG

IDO1 = test: Selectivity ratio of IC50 for cytotoxicity against human HeLa cells to EC50 for inhibition of IDO1 in human HeLa cells; assay type: cell-based; conditions: read-out: Ratio IC50/EC50
[17] = target: Indoleamine 2,3-dioxygenase 1 (Mus musculus) (UniProt P28776); test: In vivo inhibition of IDO1 in BALB/c mouse implanted with mouse CT-26 cells assessed as reduction in tumor Kyn/Trp ratio at 60 mg/kg, po administered once daily by LC-MS/MS analysis; assay type: functional, organism-based
HCT-116 [18] = test: Induction of apoptosis in human HCT-116 cells assessed as apoptotic rate at 10 uM incubated for 24 hrs by Annexin-V/PI staining based flow cytometry analysis; assay type: functional
[19] = Toxicity in athymic BALB/c mouse xenografted with human HCT-116 cells assessed as change in spleen morphology at 15 to 60 mg/kg, ig administered daily for 28 days and measured every 4 days; assay type: organism-based; conditions: in vivo, po, 672 h, dose 15-60 mg/kg, time 28 day
CT26 [20] = test: Antitumor activity against mouse CT26 cells implanted in athymic nude BALB/c mouse assessed as reduction in CD4+CD25+Foxp3+ lymphocytes at 15 to 60 mg/kg, ig administered daily for 28 days and measured every 4 days by immunofluorescence analysis; assay type: functional, organism-based; conditions: dose 15-60 mg/kg, time 28.0 day

- Activity [2]: Active
- Activity [4]: Active
- EC50 [8]: 45.6 µM
- IC50 (Thioredoxin reductase 3): > 500 µM
- EC50 [11]: 34.1 µM
- IC50 (HCT-116 [13]): 3.44 µM
- IC50 [16]: > 500 µM
- Activity [17]: Active
Structure (SMILES): O=C(Cc1ccc(O)cc1)Nc1nnc(CCCNc2nonc2/C(=N\O)Nc2ccc(F)c(Br)c2)s1
- Activity (HCT-116 [1]): Dose-Dependent Effect
- Activity (HCT-116 [3]): Active
- IC50 (HeLa [5]): 4.86 µM
- IC50 (HeLa [6]): 7.2 µM
- Activity (Mus musculus): Active
- Activity (HeLa [7]): Active
- Activity [9]: Non-Toxic
- Activity (CT26 [10]): Active
- Activity (CT26 [12]): Active
- Activity (HCT-116 [14]): 22.57%
- Activity (HeLa [15]): Active
- selectivity ratio (IDO1): 224
- Activity (HCT-116 [18]): 60.55%
- Activity [19]: Non-Toxic
- Activity (CT26 [20]): Active
